This note sets out measurements from US20250275968A1, “INHIBITORS OF TAU PROTEINS” (DEUTSCHES ZENTRUM FÜR NEURODEGENERATIVE ERKRANKUNGEN E.V., priority 2022, published 2025).

Structures can show the parent of a compound that is named as a salt.

Series [1] addresses T1, 2N4R tau (Homo sapiens, UniProt P10636).
T1 construct: Full-length 2N4R tau was incubated with Osimertinib mesylate
The experiment in a line: In vitro seeded aggregation/fibrillization assay of 2N4R tau (ThT fluorescence). In kind it is biochemical. As to conditions: for In vitro seeded aggregation/fibrillization of full-length tau (ThT fluorescence curves): 2N4R tau, various formulations. On the procedure:
Aggregation of 2N4R Tau was performed using a previously published co-factor-free aggregation protocol, with a few modifications (Reference: Chakraborty, P. et al. Co-factor-free aggregation of tau into seeding-competent RNA-sequestering amyloid fibrils. Nat. Commun. 12, 4231 (2021)). Aggregation experiments used the Tau protein stock prepared in 25 mM HEPES pH 7.4, 1 mM TCEP. Stocks of compounds were prepared in aggregation buffer (25 mM HEPES, 10 mM KCl, 5 mM MgCl2, pH 7.2) or in DMSO (10 mM compound).
(§1) To prepare the Tau fibril seeds by de novo aggregation, 2N4R Tau at a monomer concentration of 25 μM was diluted in aggregation buffer. The working concentration of TCEP in the aggregation mixture was <25 μM after dilution of the stock. To this mixture, Thioflavin T (ThT) was added to a final concentration of 50 μM. A total volume of 100 μL of the Tau-ThT mixture was incubated in a well of a 96-well microplate (Greiner Bio-one), in the presence of two polytetrafluoroethylene beads. The microplate was subjected to a program implemented in a Tecan Spark plate reader that involved incubating at 37° C., with intervals of double orbital shaking and ThT fluorescence emission measurement. The excitation wavelength for ThT was set as 430 nm and the emission wavelength was 485 nm. Details of this plate reader program were published previously (Reference: Chakraborty, P. et al. Co-factor-free aggregation of tau into seeding-competent RNA-sequestering amyloid fibrils. Nat. Commun. 12, 4231 (2021)). […] The fibril-containing mixture collected from the microplate served as a seeding mixture for the subsequent aggregation assays.
Seeded aggregation assays were performed as described above but with 1.0% of the well volume occupied by the seeding mixture sonicated for 1 minute. The assays were performed in the presence and absence of compounds, and working concentrations ranged from 0-250 μM compound.
Analyses of the fluorescence curves were performed using Graphpad PRISM version 8. Fluorescence data were fit to a sigmoid function. The number of hours corresponding to half-maximal ThT Fluorescence™ as well as the span of fluorescence intensity (Span) were determined for each sigmoid curve. Statistically significant differences were determined by one-way ANOVA analysis with Dunnett's multiple comparison test or unpaired t-test.

In series [2] the test system is tau-induced degeneration of Drosophila eyes (GMR-Gal4/WT tau). The experiment in a line: Drosophila neurodegeneration model (eye degeneration). In kind it is in vivo. As for the experimental part: Stock solutions of individual compounds were prepared by dissolving 10 mg of the compound in 100 μl of 100% DMSO. Osimertinib, Osimertinib mesylate and AZ7550 mesylate were orally fed to the flies by mixing them with food. The final concentration of each compound, which was used for treating the Drosophila, was derived on the basis of recommended concentrations for human use (reference concentration) based on body weight.
We have used three concentrations for each compound. One was equal to the reference concentration, and two were higher than the reference concentration. Final concentrations of different compounds mixed with fly food are: Osimertinib mesylate, […]; Osimertinib, […]; AZ 7550 mesylate, 10 µM and 20 µM. After hatching, first instar larvae were transferred onto the food containing one of the compounds. Food mixed with drug at required concentration was replaced with fresh food every 48 h.
Light microscopy was performed after mounting the fly heads on the glass slide using a double-sided adhesive tape. Full-eye images were captured with the help of an Infinity Analyze camera attached to an Olympus SZX7 microscope with a halogen light source. Total eye surface area and degenerated eye surface area were marked and calculated with Infinity Analyze software (Lumenera corporation). Percentage of degenerated area was calculated and plotted using GraphPad Prism 8.
After the eclosion, treated and control flies (2-3 days old) were fixed in 1% formaldehyde for two hours, followed by serial dehydration steps of 12 hrs each in 25%, 50%, 75% and 100% ethanol were carried out. Flies were stored in 100% ethanol and dried with CPD before mounting on the stab for imaging. Eye Images were captured at 150× and analyzed using Infinity Analyze software.

The test system of series [3] is HEK293T biosensor cells expressing the human tau repeat domain (RD) harboring the P301L/V337M mutation (TauRD^LM-GFP). Description: HEK biosensor cell tau seeding assay. In kind it is cell-based. Particulars: for compound concentration up to which total amount of cells remained close to 100% (low toxicity): HEK biosensor cells, relative to vehicle (DMSO). On the procedure:
Compound stock solutions were prepared as 10 mM compound in DMSO.
HEK293T biosensor cells expressing the human tau repeat domain (RD) harboring the P301L/V337M mutation and fused to a C-terminal GFP tag (named TauRD^LM-GFP) were engineered to probe Tau seeding in cellula (Reference: Liu, S., Hossinger, A., Heumüller, S E. et al. Highly efficient intercellular spreading of protein misfolding mediated by viral ligand-receptor interactions. Nat Commun 12, 5739 (2021). https://doi.org/10.1038/s41467-021-25855-2). HEK cells expressing the P301L human full-length Tau, C-terminally tagged with GFP were incubated with pre-sonicated hTau40^P301L fibrils to induce Tau aggregate formation. Cells were harvested and the resulting cell lysate was used to seed Tau aggregation in further experiments with HEK TauRD^LM-GFP cells.
In a typical seeded assay, HEK cells were incubated with cell lysate, compounds (0-40 μM) and lipofectamine for 22-48 hours. Negative control experiments in the absence of compounds (only with vehicle DMSO) and in the presence of cell lysate were performed in parallel.
Dose response curves were constructed by quantifying the number of cells with aggregates for each compound concentration. The curves were fitted with a sigmoid function using Graphpad PRISM version 8. The inhibitory concentration at 50% activity (IC50) was determined for each compound.

In series [4] the target is T2, 2N4R tau aggregates (Homo sapiens, UniProt P10636).
T2 construct: Full-length 2N4R tau was incubated with Osimertinib mesylate
Description: Dissolution of preformed 2N4R tau fibrils (ThT fluorescence, TEM). In kind it is biochemical. As to conditions: compounds added to tau fibrils after about 40 h; tau monomer:Compound 1:3 and 1:10. As for the experimental part:
(A) ThT fluorescence curves monitoring tau aggregation. tau fibrillization reached a saturation point within about 40 h, then compounds or buffer (Reference) were added to tau fibrils (tau monomer:Compound mole ratios 1:3 and 1:10). The experiment was performed in duplicate. […] Statistically significant differences were determined by one-way ANOVA with Dunnett's multiple comparison test. Significant differences corresponding to p≤0.0002(***) and p≤0.0001(****) are indicated. […] Scale bars are 500 nm. […] The dotted line corresponds to one standard deviation above the Reference value.
as §1
Fibril samples were negative stained using glow discharged 400 mesh carbon-coated copper grids. After staining using a 1% uranyl acetate solution, images were acquired on a Talos L120C transmission electron microscope (Thermo Fisher, Eindhoven, The Netherlands).

Where [5] appears, read: 2N4R tau^wt, mole ratios 1:3 and 1:10.

T1 sequence (P10636 1-441 isoform P10636-8): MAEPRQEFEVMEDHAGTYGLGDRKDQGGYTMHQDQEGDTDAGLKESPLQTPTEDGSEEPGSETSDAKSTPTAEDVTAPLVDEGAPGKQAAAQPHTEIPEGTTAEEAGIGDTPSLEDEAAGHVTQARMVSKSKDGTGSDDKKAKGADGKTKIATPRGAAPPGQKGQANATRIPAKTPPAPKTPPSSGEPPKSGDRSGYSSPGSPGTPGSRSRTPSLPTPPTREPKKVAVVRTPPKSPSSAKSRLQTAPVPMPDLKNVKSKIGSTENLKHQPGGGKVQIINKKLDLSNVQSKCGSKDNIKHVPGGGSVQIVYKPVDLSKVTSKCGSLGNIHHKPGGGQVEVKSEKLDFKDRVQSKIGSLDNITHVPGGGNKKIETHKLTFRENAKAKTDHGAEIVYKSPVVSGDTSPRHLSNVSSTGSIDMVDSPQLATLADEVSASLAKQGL
T2 sequence (P10636 1-441 isoform P10636-8): as above

Regarding `C=CC(=O)Nc1cc(Nc2nccc(-c3cn(C)c4ccccc34)n2)c(OC)cc1N(C)CCN(C)C` [Osimertinib mesylate, N-[2-(2-Dimethylaminoethylmethylamino)-4-methoxy-5-[[4-(1-methylindol-3-yl)pyrimidin-2-yl]amino]phenyl]prop-2-enamide Mesylate Salt], in series [1] (setting [5]), the “normalized Span of ThT fluorescence” value is recorded as “statistically lower normalized Span values” and the “normalized Tm (midpoint of aggregation curve)” value is “do not show a clear dose-dependence”. Besides, the “tau-induced degeneration of Drosophila eyes (percent degeneration, light microscopy)” value in series [2] (GMR-Gal4/WT tau flies treated in food from larvae stage to adult stage) was “rescue tau-induced degeneration of Drosophila eyes”.
For the molecule `C=CC(=O)Nc1cc(Nc2nccc(-c3cn(C)c4ccccc34)n2)c(OC)cc1N(C)CCN(C)C` [Osimertinib, N-[2-(2-Dimethylaminoethylmethylamino)-4-methoxy-5-[[4-(1-methylindol-3-yl)pyrimidin-2-yl]amino]phenyl]prop-2-enamide], in series [3] (0.25 μM or 7.5 μM, 22 hours, lipofectamine), the “inhibition of seeded aggregation of tau in HEK biosensor cells” value is given as “inhibits the seeded aggregation of tau”. Moreover, the “compound concentration up to which total amount of cells remained close to 100% (low toxicity)” value in series [3] was “about 5.0 μM”. In series [3] (higher concentration (7.5 μM), 22 hours), the “aggregate formation in cells” value is recorded as “decreased aggregate formation”. The “In vitro seeded aggregation/fibrillization of full-length tau (ThT fluorescence curves)” value in series [1] is listed as “inhibited in a dose-dependent manner”. For the same molecule, the “inhibitory activity towards tau aggregation” value in series [1] (2.5% (v/v) DMSO) is reported as “strong inhibitory activity”. In series [2] (compared to control with GMR-Gal4/WT tau), the “signs of eye degeneration in SEM micrographs” value is listed as “visibly reduced signs of degeneration”. In series [4], the “dissolution of 2N4R tau aggregates (reduction of ThT fluorescence intensity)” value is on record as “partially dissolve”.
On to `C=CC(=O)Nc1cc(Nc2nccc(-c3c[nH]c4ccccc34)n2)c(OC)cc1N(C)CCN(C)C` [Compound 3, N-[2-[[2-(dimethylamino)ethyl]methylamino]-5-[[4-(1H-indol-3-yl)-2-pyrimidinyl]amino]-4-methoxyphenyl]-2-Propenamide], for which the “compound concentration up to which total amount of cells remained close to 100% (low toxicity)” value in series [3] is “about 5.0 μM”. For the same molecule, in series [1], the “In vitro seeded aggregation/fibrillization of full-length tau (ThT fluorescence curves)” value is “inhibited in a dose-dependent manner”. In series [4], the “dissolution of 2N4R tau aggregates (reduction of ThT fluorescence intensity)” value is listed as “partially dissolve”.
